One assay concerns A549. The experiment in a line: Cytotoxicity against human A549 cells incubated for 2 to 4 hrs by MTT assay. Type of assay: functional, cell-based. For orientation: Formazan colour is commonly taken as a measure of viable cells.
For assay [1], the system named is MCF7. The experiment in a line: cells. It counts as functional, cell-based. Particulars: Homo sapiens.
Description: Cytotoxicity against human MCF7 cells incubated for 2 to 4 hrs by MTT assay
Assay [2] has as its target Epidermal growth factor receptor (Homo sapiens, UniProt P00533).
Description: Inhibition of EGFR (unknown origin)
Another assay can be described thus: cells. Type of assay: ADME, cell-based. Particulars: Homo sapiens, PCS-800-011.
Assay [3] deals with MCF7. The experiment in a line: Induction of cell cycle arrest in human MCF7 cells assessed as accumulation of cells at G0/G1 phase at 4.05 uM after 24 hrs by propidium iodide staining-based flow cytometric analysis (reference value: 52.94%). Type of assay: functional.
In assay [4] the test system is MCF7. Kind of assay: Induction of cell cycle arrest in human MCF7 cells assessed as accumulation of cells at S phase at 4.05 uM after 24 hrs by propidium iodide staining-based flow cytometric analysis (reference value: 36.57%). It counts as functional. (Flow cytometry measures light scatter and fluorescence of single cells or particles in a stream.)
In assay [5] the test system is MCF7. The experiment in a line: Induction of cell cycle arrest in human MCF7 cells assessed as accumulation of cells at G2/M phase at 4.05 uM after 24 hrs by propidium iodide staining-based flow cytometric analysis (reference value: 10.49%). Type of assay: functional.
For assay [6], the system named is MCF7. Kind of assay: Induction of cell cycle arrest in human MCF7 cells assessed as accumulation of cells at Pre-G1 phase at 4.05 uM after 24 hrs by propidium iodide staining-based flow cytometric analysis (reference value: 1.63%). Type of assay: functional.
Assay [7] relates to MCF7. Kind of assay: Induction of apoptosis in human MCF7 cells assessed as total apoptotic cells measured after 24 hrs by Annexin V-FITC/propidium iodide staining based flow cytometry assay (reference value: 1.63%). It counts as functional.
Assay [8] concerns MCF7. The experiment in a line: Induction of apoptosis in human MCF7 cells assessed as early apoptotic cells measured after 24 hrs by Annexin V-FITC/propidium iodide staining based flow cytometry assay (reference value: 0.32%). Type of assay: functional.
Assay [9] concerns MCF7. The experiment in a line: Induction of apoptosis in human MCF7 cells assessed as late apoptotic cells measured after 24 hrs by Annexin V-FITC/propidium iodide staining based flow cytometry assay (reference value: 0.12%). It counts as functional.
Assay [10] concerns MCF7. The experiment in a line: Induction of apoptosis in human MCF7 cells assessed as necrotic cells measured after 24 hrs by Annexin V-FITC/propidium iodide staining based flow cytometry assay (reference value: 1.19%). Type of assay: functional.
The subject of assay [11] is MCF7. Kind of assay: Induction of cell cycle arrest in human MCF7 cells assessed as accumulation of cells at G0/G1 phase at 1.74 uM after 24 hrs by propidium iodide staining-based flow cytometric analysis (reference value: 52.94%). It counts as functional.
Assay [12] has as its system MCF7. Kind of assay: Induction of cell cycle arrest in human MCF7 cells assessed as accumulation of cells at S phase at 1.74 uM after 24 hrs by propidium iodide staining-based flow cytometric analysis (reference value: 36.57%). It counts as functional.
The subject of assay [13] is MCF7. The experiment in a line: Induction of cell cycle arrest in human MCF7 cells assessed as accumulation of cells at G2/M phase at 1.74 uM after 24 hrs by propidium iodide staining-based flow cytometric analysis (reference value: 10.49%). It counts as functional.
The subject of assay [14] is MCF7. Kind of assay: Induction of cell cycle arrest in human MCF7 cells assessed as accumulation of cells at Pre-G1 phase at 1.74 uM after 24 hrs by propidium iodide staining-based flow cytometric analysis (reference value: 1.63%). Type of assay: functional.

Chain of Epidermal growth factor receptor (P00533 whole entry): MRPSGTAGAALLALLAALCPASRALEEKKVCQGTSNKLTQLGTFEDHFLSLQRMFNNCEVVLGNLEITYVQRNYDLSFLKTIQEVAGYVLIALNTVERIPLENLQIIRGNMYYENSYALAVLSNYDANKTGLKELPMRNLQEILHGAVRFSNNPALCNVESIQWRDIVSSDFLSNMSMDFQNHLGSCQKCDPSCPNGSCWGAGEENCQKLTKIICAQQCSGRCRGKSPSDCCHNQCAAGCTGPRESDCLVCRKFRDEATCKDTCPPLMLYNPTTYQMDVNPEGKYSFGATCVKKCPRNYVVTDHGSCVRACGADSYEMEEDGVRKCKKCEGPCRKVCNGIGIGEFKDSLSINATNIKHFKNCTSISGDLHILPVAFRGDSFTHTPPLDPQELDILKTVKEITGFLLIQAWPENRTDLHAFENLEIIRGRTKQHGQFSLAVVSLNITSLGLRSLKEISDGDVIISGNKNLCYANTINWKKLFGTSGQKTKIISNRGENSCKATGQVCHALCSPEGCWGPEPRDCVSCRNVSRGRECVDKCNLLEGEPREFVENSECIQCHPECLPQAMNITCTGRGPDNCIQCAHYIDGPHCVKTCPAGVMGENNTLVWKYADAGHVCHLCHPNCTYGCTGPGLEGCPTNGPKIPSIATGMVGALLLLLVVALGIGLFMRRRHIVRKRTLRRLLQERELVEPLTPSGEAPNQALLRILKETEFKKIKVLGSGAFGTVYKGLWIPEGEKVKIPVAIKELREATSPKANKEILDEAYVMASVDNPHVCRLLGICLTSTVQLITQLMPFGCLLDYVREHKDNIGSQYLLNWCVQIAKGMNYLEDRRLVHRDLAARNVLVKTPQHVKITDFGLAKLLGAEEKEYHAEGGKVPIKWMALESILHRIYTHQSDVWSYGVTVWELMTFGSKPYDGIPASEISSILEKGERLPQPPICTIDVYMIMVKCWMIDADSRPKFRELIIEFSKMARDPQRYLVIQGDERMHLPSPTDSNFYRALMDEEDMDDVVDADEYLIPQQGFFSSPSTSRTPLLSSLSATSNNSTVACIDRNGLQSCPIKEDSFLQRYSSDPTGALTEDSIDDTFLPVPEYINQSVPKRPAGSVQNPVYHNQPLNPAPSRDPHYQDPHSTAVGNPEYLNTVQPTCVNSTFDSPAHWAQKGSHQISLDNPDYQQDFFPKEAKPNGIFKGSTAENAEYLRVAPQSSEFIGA

The IC50 is the midpoint of a concentration-inhibition curve. Read a high IC50 as weaker potency. For `O=C(CNc1ccc(Br)cc1)Nn1c(-c2ccccc2)nc2ccccc2c1=O`, the results for the IC50 in the assay on A549 and with MCF7 [1] were 25 µM and 15.1 µM, respectively.
In turn, `CN(C(=O)NCCCl)c1ccc2ncnc(Nc3cccc(Cl)c3)c2c1` returned an IC50 in assay [2] of 0.081 µM. This lies in the double-digit nanomolar range.
In assay [2], `CN(/N=N\c1ccc2ncnc(Nc3cccc(Cl)c3)c2c1)C(=O)OCCl` yielded an IC50 of 0.00039 µM.
`COc1ccc(-c2coc3cc(OCC(=O)N/C=C\c4ccc(O)cc4)ccc3c2=O)cc1` returned an IC50 in assay [2] of 0.0331 µM.
In the case of `CCc1ccc(NCC(=O)Nn2c(-c3ccccc3)nc3ccccc3c2=O)cc1`, the IC50 stood at 36.9 µM in “cells”, 2.1 µM in the assay with A549, 2.42 µM in the assay with MCF7 [1] and 0.143 µM in assay [2].
As to `O=C1N=C(Nn2c(-c3ccccc3)nc3ccccc3c2=O)S/C1=C/c1ccccc1`, the IC50 was found to be 44.3 µM in the assay “cells”, 0.72 µM with A549, 4.05 µM in the assay on MCF7 [1] and 0.0656 µM in assay [2]. Further, the Activity in the assay on MCF7 [3] is 42.95%; in the assay with MCF7 [4], 27.88%; in the assay with MCF7 [5], 29.17%; in the assay with MCF7 [6], 26.38%; in the assay with MCF7 [7], 26.38%; in the assay on MCF7 [8] it was 4.95%. Besides, the results for the Activity in the assay with MCF7 [9] and in the assay on MCF7 [10] were 12.16% and 9.27%, respectively.
Turning to `COc1ccc(/C=C2/SC(Nn3c(-c4ccccc4)nc4ccccc4c3=O)=NC2=O)cc1OC`, the IC50 in the assay with A549 was 44.7 µM; in the assay on MCF7 [1] it was 1 µM.
The like results for `O=C(CNc1ccccc1)Nn1c(-c2ccccc2)nc2ccccc2c1=O` were, in that order, 13.3 µM and 15.2 µM.
As to `O=C1N=C(Nn2c(-c3ccccc3)nc3ccccc3c2=O)S/C1=C/c1ccc(O)cc1O`, the IC50 in the assay “cells” was 17.3 µM; with A549, 3.22 µM; with MCF7 [1], 7.49 µM; in assay [2], 0.178 µM.
With `O=C1N=C(Nn2c(-c3ccccc3)nc3ccccc3c2=O)S/C1=C/c1ccc(Br)cc1`, the IC50 with A549 was determined as 21.3 µM; in the assay on MCF7 [1], 2.3 µM.
For `O=C(CNc1ccc(Cl)cc1Cl)Nn1c(-c2ccccc2)nc2ccccc2c1=O` the same measures were 187 µM and 4.41 µM.
In the case of `COc1ccc(/C=C2/SC(Nn3c(-c4ccccc4)nc4ccccc4c3=O)=NC2=O)cc1`, the IC50 turned out to be 31.4 µM in “cells”, 5.31 µM in the assay with A549, 3.76 µM in the assay with MCF7 [1] and 0.136 µM in assay [2].
In the case of `O=C(CNc1ccc(Cl)cc1)Nn1c(-c2ccccc2)nc2ccccc2c1=O`, the IC50 came out at 51.2 µM in “cells”, 7.29 µM in the assay on A549, 1.74 µM in the assay on MCF7 [1] and 0.0811 µM in assay [2]. Moreover, the Activity in the assay on MCF7 [11] was determined as 34.32%; in the assay on MCF7 [12] it was 29.47%; in the assay with MCF7 [13], 36.21%; with MCF7 [14] it was 37.24%; with MCF7 [7] it was 37.24%; in the assay on MCF7 [8], 2.56%. Besides, the Activity in the assay with MCF7 [9] was 23.65%; in the assay on MCF7 [10], 11.03%.

Values taken from ChEMBL document CHEMBL4819060, “Design, synthesis and assessment of new series of quinazolinone derivatives as EGFR inhibitors along with their cytotoxic evaluation against MCF7 and A549 cancer cell lines” (Bioorg Med Chem Lett, 2021).
